Reference: patent US10206894B2, “Compounds for use in treatment of mucositis” (priority 2011, dated 2019)

Columns and labels:
[1] = test system: fractionated radiation and cisplatin induced oral mucositis, left buccal cheek pouch; conditions: published results in nearly identical models; cited from earlier work
[2] = test system: radiation-induced oral mucositis, left buccal cheek pouch; conditions: Acute Radiation; published results in nearly identical models; cited from earlier work
[3] = test system: FaDu human head and neck cancer xenograft; test: Tumor growth and response to therapy in FaDu xenograft; format: in vivo, nude mice (nu/nu)
Description: Ninety (90) male nude mice (nu/nu) were divided into nine (9) groups of ten […]) mice per group. To ensure that a sufficient number of tumor-bearing animals were available for this study, a total of 100 mice were inoculated s.c. in the flank with 1×10^6 FaDu cells. FaDu (HTB-43) human head and neck cancer cells were obtained from ATCC. These cells were grown in EMEM medium supplemented with 10% Fetal Calf Serum (FCS), 1% penicillin and streptomycin, and 2 mM L-Glutamine. […] The flask was incubated at 37° C. until cells detached. Cells were then sub-cultured at a ratio of 1:3. […] Tumors were measured once every two days with micro-calipers, and tumor volume was calculated as (length×width×width)/2. Where animals were euthanized for tumor volume exceeding the maximum permissible by IACUC rules (1500 mm^3) or tumor ulceration, the last measurement was carried forward in calculations of mean tumor volume.
All animals were weighed every day and their survival recorded, to assess possible differences in animal weight among treatment groups as an indication of possible toxicity resulting from the treatments. […] Any animals whose tumor grew to over 1500 mm^3 were also euthanized.
Further analysis of the tumor volume data was performed by calculating the mean area under the curve (AUC) for the tumor volume for each animal and comparing the groups using an ANOVA on ranks test. Due to the impact of animals euthanized for tumor ulceration or volume in excess of 1500 mm^3, this analysis was performed on data to Day 15 as well as on the full data set to Day 29.

[4] = groups receiving cisplatin chemotherapy 5 mg/kg (with vehicle or Compound X)

Structure (SMILES) | % reduction of animal days with OM scores ≥ 3 [1] | % reduction of animal days with OM scores ≥ 3 [2] | mean weight gain ([3]; cisplatin 5 mg/kg plus vehicle, by Day 15) | average gain of starting weight ([3]; cisplatin 5 mg/kg plus vehicle, by the end of the study) | p, tumor volume AUC to Day 15 vs vehicle control group (ANOVA on ranks) ([3]; cisplatin plus vehicle) | mean tumor volume ([3]; cisplatin plus vehicle, Day 1) | mean tumor volume ([3]; cisplatin plus vehicle, Day 15) | mean tumor volume ([3]; cisplatin plus vehicle, end of the study) | animals euthanized for tumor size [3, 4] | animals euthanized for tumor ulceration [3, 4] | animals survived [3, 4]
N[C@H](CCC(=O)N[C@@H](Cc1c[nH]c2ccccc12)C(=O)O)C(=O)O [SCV-07] | 33.3% | 68.3%-77.6% |  |  |  |  |  |  |  |  | 
N.N.[Cl][Pt][Cl] [cisplatin, reference compound] |  |  | 7.2% | 13.0% | 0.011 | 100 mm^3 | 652 mm^3 | 302 mm^3 | 23% | 26.7% | 50%
